Measured values reported in PubChem BioAssay (NCI).
Several values for one entry are separate records, joined by “and”; a condition that tells them apart may be missing. Equal entries are not always repeated.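 96-well plates; 48 h exposure; 5 concentrations. Endpoints by linear interpolation between flanking doses. Not reached: highest tested concentration assigned. Abbreviation: GI50, concentration required for 50% inhibition of growth. The concentration for full growth arrest is given as TGI.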

Key:
Assay in all cases: growth of human tumour cells (NCI), 48 h
CCRF-CEM leukemia = test system: CCRF-CEM leukemia
DU-145 prostate = test system: DU-145 prostate
HL-60(TB) leukemia = test system: HL-60(TB) leukemia
MDA-MB-231 breast = test system: MDA-MB-231 breast
MOLT-4 leukemia = test system: MOLT-4 leukemia
SF-539 CNS = test system: SF-539 CNS
SK-MEL-5 melanoma = test system: SK-MEL-5 melanoma
SR leukemia = test system: SR leukemia
UACC-257 melanoma = test system: UACC-257 melanoma
MCF7 breast = test system: MCF7 breast

Compound | GI50 (CCRF-CEM leukemia) | TGI (CCRF-CEM leukemia) | GI50 (DU-145 prostate) | TGI (DU-145 prostate) | GI50 (HL-60(TB) leukemia) | TGI (HL-60(TB) leukemia) | GI50 (MDA-MB-231 breast) | TGI (MDA-MB-231 breast) | GI50 (MOLT-4 leukemia) | TGI (MOLT-4 leukemia) | GI50 (SF-539 CNS) | TGI (SF-539 CNS) | GI50 (SK-MEL-5 melanoma) | TGI (SK-MEL-5 melanoma) | GI50 (SR leukemia) | TGI (SR leukemia) | GI50 (UACC-257 melanoma) | TGI (UACC-257 melanoma) | TGI (MCF7 breast) | GI50 (MCF7 breast)
C=C1C(=O)O[C@H]2[C@H]1CC/C(COC(=O)CCCCCCCC(=O)OC/C1=C/CC[C@@]3(C)O[C@H]3[C@H]3OC(=O)C(=C)[C@@H]3CC1)=C\CC[C@@]1(C)O[C@@H]21 | 476 nM | 7.49 µM | 2900 nM | 10.8 µM | 1040 nM | 4.87 µM | 1980 nM | 4.61 µM | 791 nM | 11.4 µM | 1830 nM | 3.83 µM | 1980 nM | 4.1 µM | 398 nM | 10.6 µM | 2130 nM | 4.64 µM |  | 
CCn1cc(C(=O)N/N=C/c2cccs2)c(=O)c2cc(F)c(N3CCNC(C)C3)c(F)c21 (stereo not given) |  |  | 1670 nM | 3.03 µM |  |  | 1520 nM | 2.85 µM |  |  | 1620 nM | 3.07 µM | 1780 nM | 3.19 µM |  |  | 1800 nM | 3.43 µM |  | 
Cc1ccc(C)c(NC(=O)C(=O)C2C(=O)N(c3ccccc3)N=C2N)c1 (stereo not given) |  | > 100 µM |  |  |  | > 100 µM |  |  |  | > 100 µM |  | > 100 µM |  | > 100 µM |  |  |  | > 100 µM |  | 
CC(C)(C)[Si](C)(C)OCCc1ccccc1C1CC2(S(=O)(=O)c3ccccc3)ON1CC2S(=O)(=O)c1ccccc1 (stereo not given) |  | > 100 µM |  | > 100 µM |  |  |  | > 100 µM |  | > 100 µM |  | > 100 µM |  | > 100 µM |  |  |  | > 100 µM | > 100 µM | 
Cc1cc(Cl)ccc1N=C1NC(=O)C(CC(=O)Nc2cccc(C)c2C)S1 (stereo not given) |  | > 100 µM |  |  |  |  |  |  |  | > 100 µM |  | 43.4 µM |  | 41.4 µM |  |  |  | > 100 µM |  | 
CN(C)N=Nc1cccc(C(N)=O)c1 |  | > 100 µM |  |  |  | > 100 µM |  |  |  | > 100 µM |  | > 100 µM |  | > 100 µM |  | > 100 µM |  |  |  | 
O=[N+]([O-])c1ccc(C2SCc3nc4ccccc4n32)cc1 (stereo not given) |  | > 100 µM |  |  |  | > 100 µM |  |  |  | > 100 µM |  | > 100 µM |  | 39.2 µM |  | > 100 µM |  | > 100 µM |  | 
COc1cc([C@@H]2OC(=O)C3C2C(=O)O[C@H]3c2ccc(O)c(OC)c2)ccc1O (stereo not given in full) |  | > 100 µM |  |  |  |  |  |  |  | > 100 µM |  | > 100 µM |  | > 100 µM |  | > 100 µM |  | > 100 µM |  | 
Cc1cc(Cl)nc(N(CCCNc2ccnc3cc(Cl)ccc23)Cc2cccs2)n1 | 2560 nM | > 100 µM | 2230 nM | 14.7 µM |  |  | 1240 nM | 3.4 µM | 1770 nM | 11.8 µM | 1810 nM | 5.85 µM | 1420 nM | 2.79 µM |  |  | 2190 nM | 5.49 µM | 6.85 µM | 1.74 µM
O=C(Nc1ccc([N+](=O)[O-])cc1[N+](=O)[O-])C(=O)C(C(=O)c1ccc(Cl)c(Cl)c1)C1OC(=O)c2ccccc21 (stereo not given) |  | 95 µM |  |  |  | 85.3 µM |  |  |  | 76.8 µM |  |  |  |  |  | > 100 µM |  | 68.4 µM |  | 
Cc1ccc(-c2c3c(nn2-c2ccc(S(=O)(=O)NC(=O)NC4CCCCC4)cc2)-c2ccccc2C3)cc1 |  |  | 14300 nM | 28.7 µM | 5170 nM | 21.4 µM | 21000 nM | 43.2 µM | 1860 nM | 6.14 µM | 9480 nM | 21.9 µM | 1330 nM | 9.39 µM |  |  | 23700 nM | 49.6 µM | 37.3 µM | 5.88 µM
CCOC(=O)/C(C#N)=C\Sc1ccccc1 |  | > 100 µM |  |  |  | 45.6 µM |  |  |  | 67.3 µM |  | 30.1 µM |  | > 100 µM |  | 45.2 µM |  | > 100 µM |  | 
COc1cc2c3c(n([C@@H]4CCOC4)c(=O)c2cc1OC)-c1cc2c(cc1C3=O)OCO2 | < 10 nM | > 100 µM | < 10 nM | > 100 µM | < 10 nM | > 100 µM |  |  | < 10 nM | > 100 µM | < 10 nM | 0.0208 µM |  |  |  |  |  |  | > 100 µM | < 0.01 µM
O=c1cc(-c2ccccc2)oc2cc(OCCCCCN3CCOCC3)cc(O)c12 | 94500 nM | > 100 µM | > 100000 nM | > 100 µM | 71000 nM | > 100 µM | 15600 nM | 63.7 µM | 99700 nM | > 100 µM | > 100000 nM | > 100 µM | > 100000 nM | > 100 µM |  |  | > 100000 nM | > 100 µM | > 100 µM | 88.4 µM
C[C@]12CC(C=O)C(=O)C(O)=C1CC[C@@H]1C2CC[C@@]2(C)C1CC[C@]2(C)O (stereo not given in full) |  |  |  |  |  | 41.5 µM |  |  |  | 52 µM |  | 35.1 µM |  | 34.5 µM |  |  |  | 75.5 µM |  | 
COC(=O)C12C34C=CC5(CCC6(C=CC1(CC3)O6)C52C(=O)OC)O4 (stereo not given) |  | > 100 µM |  |  |  | > 100 µM |  |  |  | > 100 µM |  | > 100 µM |  |  |  | > 100 µM |  | > 100 µM |  | 
COc1cc(C2c3cc4c(cc3[C@@H](Nc3ccc([N+](=O)[O-])cc3)C3COC(=O)[C@H]23)OCO4)cc(OC)c1O (stereo not given in full) | 226 nM | 0.967 µM and 8.1 µM |  | 37.9 µM | 11.4 nM |  |  |  | 34.2 nM | 0.544 µM and 0.442 µM | 734 nM | 3.79 µM | 740 nM | 3.94 µM | 45 nM | 0.802 µM and 2.18 µM |  | 34.5 µM | > 43.1 µM | 
O=C1C(Cl)=C(Cl)C(=O)N1c1cccc(C(F)(F)F)c1 |  | > 85.3 µM |  |  |  | > 100 µM |  |  |  | > 86.6 µM |  | > 100 µM |  | > 100 µM |  | > 100 µM |  | > 100 µM |  | 
CCCCCCCCC(C)CCCCCCCCC(=O)OCC(COP(=O)([O-])OCC[N+](C)(C)C)OC(=O)CCCCCCCCC(C)CCCCCCCC (stereo not given) |  | > 100 µM |  |  |  | > 100 µM |  |  |  | > 100 µM |  |  |  | > 100 µM |  | > 100 µM |  | > 100 µM |  | 
CC(C)N1C(C)[C@@H](c2ccccc2)O[P@@]1(=O)CC1=CCCCC1 (stereo not given in full) |  | > 100 µM |  |  |  | 63.7 µM |  |  |  | > 100 µM |  | > 100 µM |  | > 100 µM |  | > 100 µM |  | > 100 µM |  | 
